Test results from US11999683B2, “Lipocationic dendrimers and uses thereof” (priority 2015, dated 2024).

Columns and labels:
Factor VII = assay: In vivo Factor VII silencing in mice; details: 1 mg siFVII/kg
Protocol: For in vivo delivery screening, female C57BL/6 mice received tail vein i.v. injections of PBS (negative control, n=3) or dendrimer NPs containing non-targeting siRNA (siCTR, negative control, n=3) or dendrimer NPs containing anti-Factor VII siRNA (siFVII, n=3) diluted in PBS (200 μL or less in total volume). After 48 h, body-weight gain/loss was measured and mice were anaesthetized by isofluorane inhalation for blood sample collection by retro-orbital eye bleed. Serum was isolated with serum separation tubes (Becton Dickinson) and Factor VII protein levels were analyzed by a chromogenic assay (Biophen FVII, Aniara Corporation). A standard curve was constructed using samples from PBS-injected mice and relative Factor VII expression was determined by comparing treated groups to an untreated PBS control.
Having identified dendrimers that can overcome intracellular barriers, next, the dendrimers that can overcome extracellular barriers to efficiently deliver siRNA in vivo were identified. […] Dendrimers were evaluated for their ability to silence Factor VII in hepatocytes because this blood clotting factor can be readily quantified from a small serum sample (Akinc et al., 2008; Semple et al., 2010). […] FVII activity was quantified 3 days post injection.

[1] = In vivo toxicity evaluation in transgenic mice bearing MYC-driven liver tumors; details: for survival after multiple injections of siCTR NPs: tumor-bearing mice, injected days 32, 36, 40, 44 at 3 mg siCTR/kg (75 mg dendrimer/kg)
Protocol: All experiments were approved by the Institutional Animal Care and Use Committees of The University of Texas Southwestern Medical Center and were consistent with local, state and federal regulations as applicable. Female C57BL/6 mice were purchased from Harlan Laboratories (Indianapolis, IN). Transgenic mice bearing MYC-driven liver tumors were generated by crossing the TRE-MYC strain with LAP-tTA strain. Mice bearing the LAP-tTA and TRE-MYC genotype were maintained on 1 mg/mL of dox, and MYC was induced by withdrawing dox. Power analysis was performed to anticipate required number of animals to achieve statistical significance.
(§1) Wild-type mice or transgenic mice bearing liver tumors were randomly divided into different groups. Mice received tail vein i.v. injections of dendrimer NPs containing siCTR. Their body weight was monitored daily. For transgenic mice bearing liver tumors, multiple tail vain injections were performed to simulate repeated dosing.
A well-established Tet-On MYC inducible transgenic liver cancer model ws chosen (FIG. 13A) (Nguyen et al., 2014). […] At the age of 32 days (p32), these sick transgenic mice bearing aggressive liver tumors were injected with 5A2-SC8 or 6A3-SC12 NPs at 3 mg siCTR/kg dosage (75 mg dendrimer/kg or 21 mg C12-200/kg). […] In contrast to the result in WT mice, injection of C12-200 LNPs to mice bearing aggressive tumors lost >20% weight after one day, despite receiving ˜3 times less lipid than 5A2-SC8 injected mice (FIG. 12D). […] In addition to being less toxic than benchmark compounds, 5A2-SC8 NPs are more efficacious because these dendrimers reduce clinical concern for dose limiting toxicity and enable a wider therapeutic window.

[2] = Biodistribution of Cy5.5-labeled siRNA in liver tumor-bearing mice; assay type: in vivo; details: Cy5.5-labeled siRNA 1 mg/kg i.v., 24 hours post-injection
Protocol: Female C57BL/6 mice or transgenic mice bearing liver tumors received tail vein i.v. injections with dendrimer NPs containing Cy5.5-siRNA at 1 mg/kg of siRNA in 200 μL. At 24 h post injection, mice were euthanized and organs were removed. The biodistribution was assessed by imaging whole organs with an IVIS Lumina System (Caliper Life Sciences) with the Cy5.5 filter setting.
For confocal imaging, the tissue was cryo-sectioned ([…]) and fixed using 4% paraformaldehyde at room temperature for 10 min. The slides were washed three times with PBS and blocked for 30 min in PBS with 1% albumin. Sections were then incubated for 30 min with Alexa Fluor 488 Phalloidin (1:200 dilution, Life Technologies) in PBS with 1% albumin. Slides were washed three times with 0.1% Tween 20 and mounted using ProLong Gold Antifade (Life Technologies). Sections were imaged using an LSM 700 point scanning confocal microscope (Zeiss) equipped with a 25× objective.
Since 5A2-SC8 balances low in vivo toxicity and effectiveness for silencing the hepatocellular target FVII, first, whether 5A2-SC8 NPs could deliver siRNA into tumor cells was examined. At the age of 41 days (p41), the livers of these transgenic mice are full of tumors (FIG. 14A). On p40, mice were injected intravenously with 5A2-SC8 NPs with Cy5.5-labeled siRNA at a dosage of 1 mg siRNA/kg. […]

[3] = In vivo toxicity evaluation (body weight) in wild type mice; details: i.v., 4 mg siCTR/kg (100 mg dendrimer/kg or 28 mg C12-200/kg)
Protocol: as §1
To identify degradable dendrimers with the required balance of low toxicity and high potency required for liver cancer treatment, the degradable dendrimers were chose to evaluate their in vivo toxicity. In parallel, we analyzed C12-200 lipidoid LNPs wee chose as the best example of a non-hydrolyzable system previously shown to be potent in mice and non-human primates (Love et al., 2010). Lipidoids, as a class, are benchmark materials at the forefront of clinical research (Kanasty et al., 2013; Love et al., 2010; Sahay et al., 2013). Non-immunogenic control siRNA was used to best evaluate the toxicity of the individual dendrimers themselves. Dendrimer NPs were formulated at a weight ratio of 25:1 (dendrimer:siCTR), higher than necessary to better probe toxicity. C12-200 LNPs were prepared using identical formulation parameters as previously reported (Love et al., 2010). Size and zeta potential of each NP in PBS buffer was characterized. […] Each formulated NP was injected i.v. into wild type mice at a 4 mg siCTR/kg dose (100 mg dendrimer/kg or 28 mg C12-200/kg). […]

[4] = tumor-bearing mice p32, 3 mg siCTR/kg (75 mg dendrimer/kg)

SMILES	in vivo FVII knockdown (Factor VII) [%]	tolerance in tumor-bearing mice ([1]; LAP-tTA/TRE-MYC transgenic, mouse, in vivo)	body weight loss ([1]; tumor-bearing mice p32, 3 mg siCTR/kg (75 mg dendrimer/kg or 21 mg C12-200/kg), after one day)	body weight recovery [1, 4]	survival after multiple injections of siCTR NPs [1]	siRNA accumulation in organs (fluorescence imaging) [2]	body weight change [3]	body weight loss ([1]; tumor-bearing mice p32, 3 mg siCTR/kg (75 mg dendrimer/kg), by the third day) [%]
CCCCCCCCSCC(C)C(=O)OCCOC(=O)CCN(CCNCCN(CCC(=O)OCCOC(=O)C(C)CSCCCCCCCC)CCC(=O)OCCOC(=O)C(C)CSCCCCCCCC)CCNCCN(CCC(=O)OCCOC(=O)C(C)CSCCCCCCCC)CCC(=O)OCCOC(=O)C(C)CSCCCCCCCC (centres unmarked) [5A2-SC8]	> 95	up to 75 mg/kg	about 5%	quickly returned to their starting weight on the second day	well tolerated and not affect survival	siRNA accumulation in the cancerous liver, with only minor accumulation in the spleen and kidneys	quicker recovery and gained weight normally after the first day	
CCCCCCCCCCCCSCC(C)C(=O)OCCOC(=O)CCN(CCC(=O)OCCOC(=O)C(C)CSCCCCCCCCCCCC)CCN(CCN(CCC(=O)OCCOC(=O)C(C)CSCCCCCCCCCCCC)CCC(=O)OCCOC(=O)C(C)CSCCCCCCCCCCCC)CCN(CCC(=O)OCCOC(=O)C(C)CSCCCCCCCCCCCC)CCC(=O)OCCOC(=O)C(C)CSCCCCCCCCCCCC (centres unmarked) [6A3-SC12]				could not recover	died seven days earlier compared to mice that received no treatment		quicker recovery and gained weight normally after the first day	10
